The test addresses T1, VEGFR-2 (Homo sapiens, UniProt P35968).
T1 construct: gene KDR
Nature of the test: SPR with VEGFR-2 immobilized on sensor chip, compound […]. Type of test: binding.

T1 sequence (P35968 20-1356): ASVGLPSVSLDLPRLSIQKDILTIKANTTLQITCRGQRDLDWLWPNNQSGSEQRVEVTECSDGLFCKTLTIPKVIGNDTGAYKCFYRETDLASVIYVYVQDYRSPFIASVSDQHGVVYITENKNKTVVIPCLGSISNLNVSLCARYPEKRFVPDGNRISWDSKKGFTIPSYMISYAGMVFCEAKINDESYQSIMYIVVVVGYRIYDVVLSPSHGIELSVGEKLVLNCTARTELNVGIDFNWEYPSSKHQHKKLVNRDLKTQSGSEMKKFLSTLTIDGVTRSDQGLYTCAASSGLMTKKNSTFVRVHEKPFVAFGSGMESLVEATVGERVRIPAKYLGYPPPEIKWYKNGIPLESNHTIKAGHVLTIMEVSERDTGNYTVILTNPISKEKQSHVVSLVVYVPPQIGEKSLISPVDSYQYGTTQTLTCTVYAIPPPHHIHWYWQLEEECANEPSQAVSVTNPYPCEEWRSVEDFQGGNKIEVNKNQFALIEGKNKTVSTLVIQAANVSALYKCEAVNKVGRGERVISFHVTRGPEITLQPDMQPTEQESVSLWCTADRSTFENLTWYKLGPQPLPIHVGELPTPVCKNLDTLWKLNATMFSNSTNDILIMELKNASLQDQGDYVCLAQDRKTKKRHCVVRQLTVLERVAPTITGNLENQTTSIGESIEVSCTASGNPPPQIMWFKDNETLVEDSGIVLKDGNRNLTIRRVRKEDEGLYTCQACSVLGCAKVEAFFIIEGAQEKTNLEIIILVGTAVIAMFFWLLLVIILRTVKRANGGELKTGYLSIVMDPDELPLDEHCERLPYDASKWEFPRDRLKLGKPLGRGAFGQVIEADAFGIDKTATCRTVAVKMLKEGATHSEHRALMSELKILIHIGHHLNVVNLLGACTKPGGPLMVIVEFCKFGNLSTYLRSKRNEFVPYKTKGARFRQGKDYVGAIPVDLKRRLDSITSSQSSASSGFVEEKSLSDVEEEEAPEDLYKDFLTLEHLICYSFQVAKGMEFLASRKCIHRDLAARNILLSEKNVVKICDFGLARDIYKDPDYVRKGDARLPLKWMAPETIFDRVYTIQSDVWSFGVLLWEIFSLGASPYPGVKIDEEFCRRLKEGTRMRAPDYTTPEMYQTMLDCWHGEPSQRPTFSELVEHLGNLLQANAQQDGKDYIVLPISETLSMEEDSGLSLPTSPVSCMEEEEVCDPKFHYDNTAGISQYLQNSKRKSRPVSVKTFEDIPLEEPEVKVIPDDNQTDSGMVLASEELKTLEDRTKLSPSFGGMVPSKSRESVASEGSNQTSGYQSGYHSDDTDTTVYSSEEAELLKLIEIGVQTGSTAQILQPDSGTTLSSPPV

On to `CC1=C(C)C2=CC(=O)c3c(c(O)c4occ(C)c4c3O)C2(C)CC1` (stereo not shown) [ajuforrestin A], for which the Kd (as a rule, the constant that tells how readily two partners part at equilibrium) came out at 45 µM.

(Values after paper PMC12383317, “Ajuforrestin A Inhibits Tumor Proliferation and Migration by Targeting the STAT3/FAK Signaling Pathways and VEGFR-2” (Biology, 2025).)
